Reference: patent publication US20140045806A1 (priority 2012, published 2014)
Where “and” joins values, the source holds several entries; their conditions need not be identical. Equal entries are not always repeated. Where two headings read alike, the source gives them in different places. Marks after values point to notes of the source that are not given here.

Experiments:
postmenopausal women = assay: ERC-210 phase III trial, Abbreviated Sexual Function (ASF) questionnaire; type: in vivo
Description: The example below is intended only to illustrate a particular embodiment of the present invention and is not meant to limit the scope of the invention in any manner. This study (ERC-210) is a phase III, prospective, multicentre, randomized, placebo-controlled, and double-blind trial. […] The DHEA ovules or suppositories (Vaginorm™) containing prasterone in a lipophilic base were manufactured by Recipharm, Karlskoga, Sweden. The study was divided into two phases, namely screening followed by a treatment period of 12 weeks. The protocol was approved by the Institutional Review Board of the Centre Hospitalier de I'Université Laval (Quebec City, Canada), McGill University (Montreal, Canada), Ethica (Montreal, Canada), Eastern Virginia Medical School (Norfolk, Va., USA) and the Western Institutional Review Board (Los Angeles, USA).
The inclusion and exclusion criteria were as described in (Labrie, Archer et al. 2009b). A written informed consent was obtained from all subjects prior to the performance of any study-related procedure. […] A partial gynecological examination was performed to evaluate the aspect of the mucosa and tolerance to the medication on day 1 and at all visits. The standard laboratory tests, namely hematology (including complete blood count and coagulation), blood chemistry and urinalysis were performed at screening, day 1 and at all visits. Summary tabulations were prepared displaying the number of observations, mean or geometric mean as appropriate, SD; SEM, 95% two-sided CI; median, minimum, and maximum for continuous variables; and the number and percentage per category for categorical data. Statistical analyses were performed at the two-sided significance level of 0.05 unless otherwise stated. […] The endpoints for analysis consisted of the following: desire/interest, arousal and orgasm were self-rated by the women at screening, at day 1, and at week 4, 8 and 12 using the ASF and MENQOL questionnaires. Baseline was defined as the value on day 1, obtained before first use of the study treatment, and change from baseline to week 12 was calculated for each participant for each domain endpoint. The analysis comparing each dose of DHEA to placebo was performed by analysis of covariance, with the baseline value used as the covariate. Missing values were replaced by the last observation made.
The other questionnaire used in our study to investigate sexual dysfunction has been the Abbreviated Sexual Function (ASF) questionnaire. […] When the groups with no MS pain are considered, improvements of −1.2% (p=0.9028), 31% (p=0.0337), 4.8% (p=0.3706) and 3.7% (p=0.5372) are observed compared to 12% (p=0.0134), 32% (p=0.1349), 16% (p=0.8546) and 29% (p=0.0341) in the corresponding MS pain groups.
When the orgasm domain of the ASF questionnaire is analyzed, a strong placebo effect is observed in response to the composite of the three following questions; a) over the last 4 weeks, how often did you have an orgasm when you took part in sexual activity (may be with or without partner); b) over the last 4 weeks, in general, how pleasurable were the orgasms the you had and; c) over the last 4 weeks, in general, how easy was it for you to reach orgasm?

vaginal nerve fibers = conditions: rat, lamina propria and muscularis, cited from earlier work
[1] = 0.25% DHEA intravaginal daily 12 weeks, MS pain at sexual activity at baseline
[2] = 0.25% DHEA intravaginal daily 12 weeks, all subjects (ITT)
[3] = 0.25% DHEA intravaginal daily 12 weeks, no MS pain at sexual activity at baseline
[4] = 0.5% DHEA intravaginal daily 12 weeks, MS pain at sexual activity at baseline
[5] = 0.5% DHEA intravaginal daily 12 weeks, all subjects (ITT)
[6] = 0.5% DHEA intravaginal daily 12 weeks, no MS pain at sexual activity at baseline
[7] = 1.0% DHEA intravaginal daily 12 weeks, no MS pain at sexual activity at baseline
[8] = Pool 3 Doses DHEA intravaginal daily 12 weeks, MS pain at sexual activity at baseline
[9] = Pool 3 Doses DHEA intravaginal daily 12 weeks, MS pain at sexual activity at baseline, listed as prasterone
[10] = Pool 3 Doses DHEA intravaginal daily 12 weeks, all subjects (ITT)
[11] = Pool 3 Doses DHEA intravaginal daily 12 weeks, all subjects (ITT), listed as prasterone
[12] = Pool 3 Doses DHEA intravaginal daily 12 weeks, no MS pain at sexual activity at baseline
[13] = Pool 3 Doses DHEA intravaginal daily 12 weeks, no MS pain at sexual activity at baseline, listed as prasterone
[14] = average of the 3 DHEA doses, MS PAIN at baseline
[15] = average of the 3 DHEA doses, NO MS PAIN at baseline
[16] = average of the 3 DHEA doses, TOTAL (all women)

C[C@]12CC[C@H](O)CC1=CC[C@@H]1[C@@H]2CC[C@]2(C)C(=O)CC[C@@H]12 [DHEA, (3β)-3-Hydroxyandrost-5-en-17-one]
ASF Arousal/lubrication score, average % change from baseline to Week 12 (increased from baseline) (postmenopausal women; [1]): 189%
ASF Arousal/sensation score, average % change from baseline to Week 12 (increased from baseline) (postmenopausal women; [1]): 97%
ASF Desire score, average % change from baseline to Week 12 (increased from baseline) (postmenopausal women; [1]): 32%
ASF Orgasm score, average % change from baseline to Week 12 (increased from baseline) (postmenopausal women; [1]): 66%
ASF SUMMARY SCORE, average % change from baseline to Week 12 (increased from baseline) (postmenopausal women; [1]): 59%
ASF Arousal/sensation score, average % change from baseline to Week 12 (increased from baseline) (postmenopausal women; [2]): 80%
ASF Orgasm score, average % change from baseline to Week 12 (increased from baseline) (postmenopausal women; [2]): 64%
ASF Arousal/lubrication score, average % change from baseline to Week 12 (increased from baseline) (postmenopausal women; [3]): 95%
ASF Arousal/sensation score, average % change from baseline to Week 12 (increased from baseline) (postmenopausal women; [3]): 43%
ASF Orgasm score, average % change from baseline to Week 12 (increased from baseline) (postmenopausal women; [3]): 59%
ASF SUMMARY SCORE, average % change from baseline to Week 12 (increased from baseline) (postmenopausal women; [3]): 42%
ASF Arousal/sensation score, average % change from baseline to Week 12 (increased from baseline) (postmenopausal women; [4]): 66%
ASF Desire score, average % change from baseline to Week 12 (increased from baseline) (postmenopausal women; [4]): 16%
ASF Orgasm score, average % change from baseline to Week 12 (increased from baseline) (postmenopausal women; [4]): 51%
ASF SUMMARY SCORE, average % change from baseline to Week 12 (increased from baseline) (postmenopausal women; [4]): 42%
ASF Desire score, average % change from baseline to Week 12 (increased from baseline) (postmenopausal women; [5]): 13%
ASF Orgasm score, average % change from baseline to Week 12 (increased from baseline) (postmenopausal women; [5]): 53%
ASF SUMMARY SCORE, average % change from baseline to Week 12 (increased from baseline) (postmenopausal women; [5]): 39%
ASF Arousal/lubrication score, average % change from baseline to Week 12 (increased from baseline) (postmenopausal women; [6]): 106%
ASF Arousal/sensation score, average % change from baseline to Week 12 (increased from baseline) (postmenopausal women; [6]): 103%
ASF Desire score, average % change from baseline to Week 12 (increased from baseline) (postmenopausal women; [6]): 4.8%
ASF Orgasm score, average % change from baseline to Week 12 (increased from baseline) (postmenopausal women; [6]): 56%
ASF SUMMARY SCORE, average % change from baseline to Week 12 (increased from baseline) (postmenopausal women; [6]): 31%
ASF Orgasm score, average % change from baseline to Week 12 (increased from baseline) (postmenopausal women; 1.0% DHEA intravaginal daily 12 weeks, MS pain at sexual activity at baseline): 76%
ASF Orgasm score, average % change from baseline to Week 12 (increased from baseline) (postmenopausal women; 1.0% DHEA intravaginal daily 12 weeks, all subjects (ITT)): 71%
ASF Arousal/lubrication score, average % change from baseline to Week 12 (increased from baseline) (postmenopausal women; [7]): 63%
ASF Arousal/sensation score, average % change from baseline to Week 12 (increased from baseline) (postmenopausal women; [7]): 30%
ASF Desire score, average % change from baseline to Week 12 (increased from baseline) (postmenopausal women; [7]): 3.7%
ASF Orgasm score, average % change from baseline to Week 12 (increased from baseline) (postmenopausal women; [7]): 50%
ASF SUMMARY SCORE, average % change from baseline to Week 12 (increased from baseline) (postmenopausal women; [7]): 21%
Sum of changes above placebo, ASF domains (postmenopausal women; MS group): 209.4%
ASF Arousal/lubrication score, average % change from baseline to Week 12 (increased from baseline) (postmenopausal women; [8]): 171%**
ASF Arousal/sensation score, average % change from baseline to Week 12 (increased from baseline) (postmenopausal women; [8]): 76.2%*
ASF Desire score, average % change from baseline to Week 12 (increased from baseline) (postmenopausal women; [8]): 24.9%
ASF Orgasm score, average % change from baseline to Week 12 (increased from baseline) (postmenopausal women; [8]): 64.3%
ASF Arousal/lubrication score, average % change from baseline to Week 12 (increased from baseline) (postmenopausal women; [9]): 171%
ASF Arousal/sensation score, average % change from baseline to Week 12 (increased from baseline) (postmenopausal women; [9]): 76.2%
ASF Desire score, average % change from baseline to Week 12 (increased from baseline) (postmenopausal women; [9]): 24.9%
ASF Orgasm score, average % change from baseline to Week 12 (increased from baseline) (postmenopausal women; [9]): 64.3%
ASF Arousal/lubrication score, average % change from baseline to Week 12 (increased from baseline) (postmenopausal women; [10]): 149%**
ASF Arousal/sensation score, average % change from baseline to Week 12 (increased from baseline) (postmenopausal women; [10]): 71.2%**
ASF Desire score, average % change from baseline to Week 12 (increased from baseline) (postmenopausal women; [10]): 21.0%*
ASF Orgasm score, average % change from baseline to Week 12 (increased from baseline) (postmenopausal women; [10]): 62.4%
ASF SUMMARY SCORE, average % change from baseline to Week 12 (increased from baseline) (postmenopausal women; [10]): 46.6%**
ASF Arousal/lubrication score, average % change from baseline to Week 12 (increased from baseline) (postmenopausal women; [11]): 149%
ASF Arousal/sensation score, average % change from baseline to Week 12 (increased from baseline) (postmenopausal women; [11]): 71.2%
ASF Desire score, average % change from baseline to Week 12 (increased from baseline) (postmenopausal women; [11]): 21.0%
ASF Orgasm score, average % change from baseline to Week 12 (increased from baseline) (postmenopausal women; [11]): 62.4%
ASF SUMMARY SCORE, average % change from baseline to Week 12 (increased from baseline) (postmenopausal women; [11]): 46.6%
ASF Arousal/lubrication score, average % change from baseline to Week 12 (increased from baseline) (postmenopausal women; [12]): 84.6%
ASF Arousal/sensation score, average % change from baseline to Week 12 (increased from baseline) (postmenopausal women; [12]): 52.7%
ASF Desire score, average % change from baseline to Week 12 (increased from baseline) (postmenopausal women; [12]): 14.0%
ASF Orgasm score, average % change from baseline to Week 12 (increased from baseline) (postmenopausal women; [12]): 55.3%
ASF SUMMARY SCORE, average % change from baseline to Week 12 (increased from baseline) (postmenopausal women; [12]): 31.1%
ASF Arousal/lubrication score, average % change from baseline to Week 12 (increased from baseline) (postmenopausal women; [13]): 84.6%
ASF Arousal/sensation score, average % change from baseline to Week 12 (increased from baseline) (postmenopausal women; [13]): 52.7%
ASF Desire score, average % change from baseline to Week 12 (increased from baseline) (postmenopausal women; [13]): 14.0%
ASF Orgasm score, average % change from baseline to Week 12 (increased from baseline) (postmenopausal women; [13]): 55.3%
ASF Arousal/lubrication, average % change from baseline to Week 12 in severity score over placebo (postmenopausal women; [14]): 118%**
ASF Arousal/sensation, average % change from baseline to Week 12 in severity score over placebo (postmenopausal women; [14]): 64.2%*
ASF Desire, average % change from baseline to Week 12 in severity score over placebo (postmenopausal women; [14]): 12.9%
ASF Orgasm, average % change from baseline to Week 12 in severity score over placebo (postmenopausal women; [14]): 14.3%
ASF Arousal/lubrication, average % change from baseline to Week 12 in severity score over placebo (postmenopausal women; [15]): 67.6%
ASF Arousal/sensation, average % change from baseline to Week 12 in severity score over placebo (postmenopausal women; [15]): 58.0%
ASF Desire, average % change from baseline to Week 12 in severity score over placebo (postmenopausal women; [15]): 15.2%
ASF Orgasm, average % change from baseline to Week 12 in severity score over placebo (postmenopausal women; [15]): 59.4%
ASF Summary score, average % change from baseline to Week 12 in severity score over placebo (postmenopausal women; [15]): 32.1%
ASF Arousal/lubrication, average % change from baseline to Week 12 in severity score over placebo (postmenopausal women; [16]): 104%**
ASF Arousal/sensation, average % change from baseline to Week 12 in severity score over placebo (postmenopausal women; [16]): 62.6%**
ASF Desire, average % change from baseline to Week 12 in severity score over placebo (postmenopausal women; [16]): 12.3%*
ASF Orgasm, average % change from baseline to Week 12 in severity score over placebo (postmenopausal women; [16]): 26.4%
Sum of changes above placebo, ASF domains (postmenopausal women; non MS group): 200.2% and 202.2%
Specificity of the effect of DHEA, ASF (postmenopausal women; non MS pain group versus MS pain group): 30 fold
Density of vaginal nerve fibers (vaginal nerve fibers): increases the density of nerve fibers
Density of vaginal nerve fibers (vaginal nerve fibers; listed as prasterone): stimulatory effect
